According to patent US8431556B2, “C-21-keto lupane derivatives preparation and use thereof” (Vertex Pharmaceuticals Incorporated, priority 2008, dated 2013):
Where two headings read alike, the source gives them in different places.

Test system: HIV-1 (HIVIIIB)
Test: HIV-1 replication in MT2 cell line with and without 30% human serum (viral RT activity in supernatant)
Type: cell-based
Conditions: Human immunodeficiency virus 1, MT2, MT-2 cells, average IC50 if tested more than once
Protocol: HIV-1 Replication in MT2 cell line with and without 30% human serum: The cells are infected at a Multiciplicity of Infection (MOI) of 0.5 for 3 h and then washed twice with complete media to remove residual virus. Cells are then resuspended at 0.5×10^6/ml in complete medium (RPMI, 10% FBS, 1% sodium pyruvate), and seeded into 96-well plates (6.25×10^4/well). The cells are cultured in the presence or absence of various concentrations of test compounds in serial dilutions for 3 days at 37° C. The test compounds are serially diluted in complete medium supplemented or not with 30% human serum. After 3 days, 100 μL of cultured medium with cells are replaced with 120 μL of freshly diluted test compounds in complete medium containing or not 30% Human serum. The level of HIV-1 replication is determined at days 5 after infection by the presence of viral RT activity in harvested supernatant fluid. The IC50 and IC90 values for the virus replication are determined by using GRAPHPAD PRISM software.
The IC50 of the compounds tested in accordance with the HIV replication activity assay MT-2 (HIVIIIB) are represented in Table 4 (without HS) and Table 5 (with 30% HS)

[1] = with 30% human serum, read-out: MT-2 (HIVIIIB) with 30% HS IC50 range
[2] = without HS, read-out: MT-2 (HIVIIIB) IC50 range

## CC(C)C1=C2[C@H]3CC[C@@H]4[C@@]5(C)CC[C@H](OC(=O)CC(C)(C)C(=O)O)C(C)(C)[C@@H]5CC[C@@]4(C)[C@]3(C)CC[C@@]2(C(=O)N2CCC(NC(=O)OC(C)(C)C)CC2)CC1=O [9-41, 3β-O-(3′,3′-Dimethylsuccinyl)-21-oxolup-18-en-28-oic acid N-(4-aminocarboxylic acid tert-butyl-ester-1-piperidine)-acetamide]
[1]
  IC50: < 199 nM

## CC(C)C1=C2C3CCC4[C@@]5(C)CC[C@H](OC(=O)CC(C)(C)C(=O)O)C(C)(C)C5CC[C@@]4(C)[C@]3(C)CC[C@@]2(C(=O)Nc2ncc3ccccc3n2)CC1=O (stereo partly drawn) [9-89, 3β-O-(3′,3′-Dimethylsuccinyl)-21-oxolup-18-en-28-oic acid N-quinazolin-2-yl acetamide]
[1]
  IC50: < 199 nM

## CC(C)C1=C2[C@H]3CC[C@@H]4[C@@]5(C)CC[C@H](OC(=O)CC(C)(C)C(=O)O)C(C)(C)[C@@H]5CC[C@@]4(C)[C@]3(C)CC[C@@]2(C(=O)N2CCC2)CC1=O [9-70, 3β-O-(3′,3′-Dimethylsuccinyl)-21-oxolup-18-en-28-oic acid N-azetidine-1 acetamide]
[1]
  IC50: < 199 nM

## CC(C)C1=C2C3CCC4[C@@]5(C)CC[C@H](OC(=O)CC(C)(C)C(=O)O)C(C)(C)C5CC[C@@]4(C)[C@]3(C)CC[C@@]2(C(=O)Nc2ccc(F)cc2)CC1=O (stereo partly drawn) [9-88, 3β-O-(3′,3′-Dimethylsuccinyl)-21-oxolup-18-en-28-oic acid N-4-fluoro-phen-1-yl acetamide]
[1]
  IC50: < 199 nM

## CC(C)C1=C2[C@H]3CC[C@@H]4[C@@]5(C)CC[C@H](OC(=O)CC(C)(C)C(=O)O)C(C)(C)[C@@H]5CC[C@@]4(C)[C@]3(C)CC[C@@]2(C(=O)NCc2cccc(Cl)c2)CC1=O [9-13, 3β-O-(3′,3′-Dimethylsuccinyl)-21-oxolup-18-en-28-oic acid N-3-chloro-benzylamide]
[2]
  IC50: < 199 nM

## CC(C)C1=C2[C@H]3CC[C@@H]4[C@@]5(C)CC[C@H](OC(=O)CC(C)(C)C(=O)O)C(C)(C)[C@@H]5CC[C@@]4(C)[C@]3(C)CC[C@@]2(C(=O)N2CCC(N)CC2)CC1=O [9-42]
[1]
  IC50: < 199 nM

## CC(C)C1=C2[C@H]3CC[C@@H]4[C@@]5(C)CC[C@H](OC(=O)CC(C)(C)C(=O)O)C(C)(C)[C@@H]5CC[C@@]4(C)[C@]3(C)CC[C@@]2(C(=O)N2CCN(C(=O)OC(C)(C)C)CC2)CC1=O [9-27, 3β-O-(3′,3′-Dimethylsuccinyl)-21-oxolup-18-en-28-oic acid N-1-acetyl-piperazine-4-carboxylic acid tert-butyl ester]
[1]
  IC50: < 199 nM

## CC(C)C1=C2C3CCC4[C@@]5(C)CC[C@H](OC(=O)CC(C)(C)C(=O)O)C(C)(C)C5CC[C@@]4(C)[C@]3(C)CC[C@@]2(C(=O)N(C)C(C)(C)C)CC1=O (stereo partly drawn) [9-78, 3β-O-(3′,3′-Dimethylsuccinyl)-21-oxolup-18-en-28-oic acid N-tert-butyl-N-methyl-acetamide]
[1]
  IC50: < 199 nM

## CC(=O)NCCNC(=O)[C@@]12CC[C@]3(C)[C@H](CC[C@@H]4[C@@]5(C)CC[C@H](OC(=O)CC(C)(C)C(=O)O)C(C)(C)[C@@H]5CC[C@]43C)C1=C(C(C)C)C(=O)C2 [9-22, 3β-O-(3′,3′-Dimethylsuccinyl)-21-oxolup-18-en-28-oic acid N-(2-acetylamino-ethyl)-acetamide]
[1]
  IC50: < 199 nM

## CC(=O)N1CCC(NC(=O)[C@@]23CC[C@]4(C)[C@H](CC[C@@H]5[C@@]6(C)CC[C@H](OC(=O)CC(C)(C)C(=O)O)C(C)(C)[C@@H]6CC[C@]54C)C2=C(C(C)C)C(=O)C3)CC1 [9-32, 3β-O-(3′,3′-Dimethylsuccinyl)-21-oxolup-18-en-28-oic acid N-(4-amino-N-1-acetyl-piperidine)-acetamide]
[1]
  IC50: < 199 nM

## CC(C)C1=C2[C@H]3CC[C@@H]4[C@@]5(C)CC[C@H](OC(=O)CC(C)(C)C(=O)O)C(C)(C)[C@@H]5CC[C@@]4(C)[C@]3(C)CC[C@@]2(C(=O)NCc2ccccc2)CC1=O [9-1, 3β-O-(3′,3′-Dimethylsuccinyl)-21-oxolup-18-en-28-oic acid N-benzylamide]
[2]
  IC50: < 199 nM

## CNC(=O)[C@@]12CC[C@]3(C)[C@H](CC[C@@H]4[C@@]5(C)CC[C@H](OC(=O)CC(C)(C)C(=O)O)C(C)(C)[C@@H]5CC[C@]43C)C1=C(C(C)C)C(=O)C2 [9-2, 3β-O-(3′,3′-Dimethylsuccinyl)-21-oxolup-18-en-28-oic acid N-methylamide]
[2]
  IC50: < 199 nM

## CC(C)C1=C2[C@H]3CC[C@@H]4[C@@]5(C)CC[C@H](OC(=O)CC(C)(C)C(=O)O)C(C)(C)[C@@H]5CC[C@@]4(C)[C@]3(C)CC[C@@]2(C(=O)Nc2cnn(C)c2)CC1=O [9-57, 3β-O-(3′,3′-Dimethylsuccinyl)-21-oxolup-18-en-28-oic acid N-4-amino-1-methyl-1H-pyrazole acetamide]
[1]
  IC50: < 199 nM

## CC(C)C1=C2C3CCC4[C@@]5(C)CC[C@H](OC(=O)CC(C)(C)C(=O)O)C(C)(C)C5CC[C@@]4(C)[C@]3(C)CC[C@@]2(C(=O)NC[C@@H]2CCCN2)CC1=O (stereo partly drawn) [9-82, 3β-O-(3′,3′-Dimethylsuccinyl)-21-oxolup-18-en-28-oic acid N-((S)-1-pyrrolidin-2-ylmethyl)-acetamide]
[1]
  IC50: < 199 nM

## CC(=O)N1CCN(C(=O)[C@@]23CC[C@]4(C)[C@H](CC[C@@H]5[C@@]6(C)CC[C@H](OC(=O)CC(C)(C)C(=O)O)C(C)(C)[C@@H]6CC[C@]54C)C2=C(C(C)C)C(=O)C3)CC1 [9-8, 3β-O-(3′,3′-Dimethylsuccinyl)-21-oxolup-18-en-28-oic acid N-(4-acetylpiperazinyl) acetamide]
[1]
  IC50: < 199 nM

## CC(C)C1=C2C3CCC4[C@@]5(C)CC[C@H](OC(=O)CC(C)(C)C(=O)O)C(C)(C)C5CC[C@@]4(C)[C@]3(C)CC[C@@]2(C(=O)Nc2nnn(C)n2)CC1=O (stereo partly drawn) [9-90, 3β-O-(3′,3′-Dimethylsuccinyl)-21-oxolup-18-en-28-oic acid N-(1-methyl-1H-tetrazol-3-yl)-acetamide]
[1]
  IC50: < 199 nM

## CC(C)C1=C2[C@H]3CC[C@@H]4[C@@]5(C)CC[C@H](OC(=O)CC(C)(C)C(=O)O)C(C)(C)[C@@H]5CC[C@@]4(C)[C@]3(C)CC[C@@]2(C(=O)N2CCN(C)CC2)CC1=O [9-9, 3β-O-(3′,3′-Dimethylsuccinyl)-21-oxolup-18-en-28-oic acid N-(4-methylpiperazinyl) acetamide]
[1]
  IC50: < 199 nM

## CC(C)C1=C2[C@H]3CC[C@@H]4[C@@]5(C)CC[C@H](OC(=O)CC(C)(C)C(=O)O)C(C)(C)[C@@H]5CC[C@@]4(C)[C@]3(C)CC[C@@]2(C(=O)Nc2cccnc2)CC1=O [9-26, 3β-O-(3′,3′-Dimethylsuccinyl)-21-oxolup-18-en-28-oic acid N-pyridin-3-yl-acetamide]
[1]
  IC50: < 199 nM

## CC(C)C1=C2[C@H]3CC[C@@H]4[C@@]5(C)CC[C@H](OC(=O)CC(C)(C)C(=O)O)C(C)(C)[C@@H]5CC[C@@]4(C)[C@]3(C)CC[C@@]2(C(=O)Nc2cncc3ccccc23)CC1=O [9-63, 3β-O-(3′,3′-Dimethylsuccinyl)-21-oxolup-18-en-28-oic acid N-isoquinolin-4-yl-acetamide]
[1]
  IC50: < 199 nM

## CC(C)C1=C2[C@H]3CC[C@@H]4[C@@]5(C)CC[C@H](OC(=O)CC(C)(C)C(=O)O)C(C)(C)[C@@H]5CC[C@@]4(C)[C@]3(C)CC[C@@]2(C(=O)N2CCOCC2)CC1=O [9-7, 3β-O-(3′,3′-Dimethylsuccinyl)-21-oxolup-18-en-28-oic acid N-morpholyl acetamide]
[1]
  IC50: < 199 nM
